In test [1] the target is T1, firefly luciferase (FLuc) (Photinus pyralis, UniProt P08659).
T1 construct: host or cells: AR-EcoScreen (Chinese hamster ovary derived), lysate after dihydrotestosterone induction
Put plainly: Cell-lysate (AR-EcoScreen) in vitro firefly luciferase inhibition assay. The class given is biochemical. The following applies: for IC50 / FLuc inhibition (result in words): AR-EcoScreen cell lysate; for inhibition at 1 µM / inhibition at 10 µM / inhibition at 100 µM: read-out: inhibition of FLuc; for FLuc inhibition (result in words): screened at 1, 10, 100 µM. How it is done:
(§1) Preparation of cell lysates for use in the luciferase inhibition assays was through seeding of 4–7 ×10^6 cells into a 150 cm^2 growth flask (an equivalent surface density to that indicated in OECD TG 458 [10]) for 24 h at 37 °C under 5% CO2. Upon incubation, dihydrotestosterone (Sigma-Aldrich, St. Louis, MO, USA) diluted in DMSO was added at 10 nM final concentration. This was followed by another 24-h incubation, removal of medium, and addition of 9.4 mL reporter lysis buffer (Promega, Madison, WI, USA). The growth flask was then stored at −80 °C until use.
The cell lysate was thawed at room temperature. Stock solutions of the isoflavonoids and positive controls were dissolved in DMSO and 10-fold serially diluted in the cell lysate to the final concentration with 1% DMSO. Twenty microliters of each isoflavonoid in the cell lysate were transferred to 96-well plates in triplicate and incubated for 30 min at room temperature. Then, 30 µL Luciferase Assay Reagent II (contained in the Dual-Luciferase Reporter Assay System; Promega, Madison, WI, USA) was added to each well, and the FLuc luminescence was measured using a microplate reader (Synergy 4 hybrid; BioTek, Winooski, VT, USA). The addition of 30 µL of Stop & Glo Reagent (contained in the Dual-Luciferase Reporter Assay System) followed, and the RLuc luminescence was recorded using the microplate reader (Synergy 4 hybrid; BioTek, Winooski, VT, USA).
The data from the in vitro luciferase inhibition assays in the AR-EcoScreen cell lysate were processed by first subtracting the background value (i.e., reporter lysis buffer alone) and then normalization to the vehicle control (1% DMSO), and are expressed as means ± standard deviation of three independent repeats carried out as technical triplicates. […] Statistical significance as compared to the vehicle control, considered: *, p ≤ 0.05; **, p ≤ 0.01; and ****, p ≤ 0.0001, using one-way ANOVA, followed by post-hoc Dunnett’s tests.

The test system of another test is RLuc. The following applies: read-out: IC50 RLuc inhibition; in the presence of 10 µM coelenterazine; cited from earlier work.
In test [2] the target is T2, Renilla luciferase (RLuc) (Renilla reniformis, UniProt P27652).
T2 construct: host or cells: AR-EcoScreen (Chinese hamster ovary derived), lysate
T2 sequence (P27652 1-311): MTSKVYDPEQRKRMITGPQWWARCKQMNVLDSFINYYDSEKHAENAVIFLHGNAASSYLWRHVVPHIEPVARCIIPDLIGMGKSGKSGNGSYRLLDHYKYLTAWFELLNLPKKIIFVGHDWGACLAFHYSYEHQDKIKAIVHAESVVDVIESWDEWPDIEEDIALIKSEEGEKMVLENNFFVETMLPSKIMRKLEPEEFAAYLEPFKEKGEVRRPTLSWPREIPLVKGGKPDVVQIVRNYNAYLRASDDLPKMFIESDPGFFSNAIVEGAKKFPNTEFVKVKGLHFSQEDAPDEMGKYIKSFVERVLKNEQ
Briefly: Cell-lysate (AR-EcoScreen) in vitro Renilla luciferase inhibition assay. The format is biochemical. How it is done: as §1
The cell lysate was thawed at room temperature. Stock solutions of the isoflavonoids and positive controls were dissolved in DMSO and 10-fold serially diluted in the cell lysate to the final concentration with 1% DMSO. […] Then, 30 µL Luciferase Assay Reagent II (contained in the Dual-Luciferase Reporter Assay System; Promega, Madison, WI, USA) was added to each well, and the FLuc luminescence was measured using a microplate reader (Synergy 4 hybrid; BioTek, Winooski, VT, USA). The addition of 30 µL of Stop & Glo Reagent (contained in the Dual-Luciferase Reporter Assay System) followed, and the RLuc luminescence was recorded using the microplate reader (Synergy 4 hybrid; BioTek, Winooski, VT, USA). […]

In a further test the test system is isolated FLuc. The following applies: cited from earlier work.
Setting [3] is: read-out: IC50 firefly luciferase inhibition.
[4] abbreviates: IC50 firefly luciferase inhibition.

The structures appear in SMILES notation. Several values for one entry are separate records, joined by “and”; a condition that tells them apart may be missing. Equal entries are not always repeated. Entries after “also recorded” stand apart in the source; their conditions may differ. Where two headings read alike, the source gives them in different places.

T1 sequence (P08659 whole entry): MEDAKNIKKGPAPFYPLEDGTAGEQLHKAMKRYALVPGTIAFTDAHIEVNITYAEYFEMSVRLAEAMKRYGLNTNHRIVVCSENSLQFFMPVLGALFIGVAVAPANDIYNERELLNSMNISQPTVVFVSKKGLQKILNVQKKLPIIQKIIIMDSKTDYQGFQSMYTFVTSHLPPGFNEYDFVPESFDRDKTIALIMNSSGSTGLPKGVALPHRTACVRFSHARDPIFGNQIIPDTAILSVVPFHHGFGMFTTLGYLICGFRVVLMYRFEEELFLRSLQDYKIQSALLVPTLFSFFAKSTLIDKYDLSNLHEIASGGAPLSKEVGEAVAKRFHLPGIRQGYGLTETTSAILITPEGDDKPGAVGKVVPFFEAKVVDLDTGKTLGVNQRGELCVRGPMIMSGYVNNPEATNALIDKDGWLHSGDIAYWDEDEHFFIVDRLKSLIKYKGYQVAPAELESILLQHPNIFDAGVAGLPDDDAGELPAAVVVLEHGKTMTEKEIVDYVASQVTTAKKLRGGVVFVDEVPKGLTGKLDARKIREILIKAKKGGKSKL

Take `COc1ccc(-c2coc3cc(O)cc(O)c3c2=O)cc1` [Biochanin A, biochanin A]: the IC50 in test [1] (setting [3]) is 0.636 µM and 0.64 µM. The inhibition at 1 µM in test [1] came out at 62.4%. As to `COc1ccc(-c2coc3cc(O)ccc3c2=O)cc1O` [Calycosin], the IC50 in test [1] (setting [4]) was 4.96 µM. For the same compound, in test [1], the inhibition at 10 µM was 66.2%. In the case of `O=c1c(-c2ccc(O)cc2)coc2cc(O)ccc12` [Daidzein], the concentration for half-maximal inhibition (IC50) in test [1] (setting [4]) came to 51.4 µM. Also, the inhibition at 100 µM in test [1] was 60.9%. On to `O=c1c(-c2ccc(O)cc2)coc2cc(O[C@@H]3O[C@H](CO)[C@@H](O)[C@H](O)[C@H]3O)ccc12` [Daidzin, daidzin], for which the “FLuc inhibition (result in words)” value in test [1] is “inactive; also recorded: did not show inhibition of FLuc at all”.

For `COc1ccc(-c2coc3cc(O)ccc3c2=O)cc1` [Formononetin, formononetin], in test [1] (setting [3]), the IC50 is 3.88 µM. Further, the inhibition at 1 µM in test [1] was 32.4%. As to `O=c1c(-c2ccc(O)cc2)coc2cc(O)cc(O)c12` [Genistein, genistein], the half-inhibitory concentration (IC50) in test [1] (setting [4]) was found to be 36.9 µM. For the same compound, in test [1], the inhibition at 100 µM turned out to be 71.2%. `O=c1c(-c2ccc(O)cc2)coc2cc(O[C@@H]3O[C@H](CO)[C@@H](O)[C@H](O)[C@H]3O)cc(O)c12` [Genistin, genistin]: the “FLuc inhibition (result in words)” value in test [1] is “inactive”; in test [1] (listed as genistin), “did not show inhibition of FLuc at all”. Consider `COc1cc2c(=O)c(-c3ccc(O)cc3)coc2cc1O` [Glycitein], for which, in test [1] (setting [4]), the IC50 is 26.4 µM. Further, the inhibition at 10 µM in test [1] came out at 30.1%. On to `COc1cc2c(=O)c(-c3ccc(O)cc3)coc2cc1O[C@@H]1O[C@H](CO)[C@@H](O)[C@H](O)[C@H]1O` [Glycitin, glycitin], for which the “FLuc inhibition (result in words)” value in test [1] was “inactive; also recorded: did not show inhibition of FLuc at all”. Consider `O=S(=O)(NCCNC/C=C/c1ccc(Br)cc1)c1cccc2cnccc12` [H-89], for which the 50% inhibitory concentration (IC50) with RLuc is 10 µM; in test [2], 338 µM. On to `COc1cc(O)c2c(=O)c(-c3ccc(O)cc3)coc2c1` [Prunetin, prunetin], for which, in test [1] (setting [4]), the IC50 stood at 16.3 µM. In addition, the inhibition at 10 µM in test [1] was 40.7%. For `Oc1ccc(/C=C/c2cc(O)cc(O)c2)cc1` [Resveratrol, resveratrol], the concentration for half-maximal inhibition (IC50) with isolated FLuc was 2 µM. As for `Oc1ccc([C@H]2COc3cc(O)ccc3C2)cc1` [S-Equol, S-equol], the “FLuc inhibition (result in words)” value in test [1] was “inactive; also recorded: did not show inhibition of FLuc at all”.

These data come from paper PMC8268740, “Evaluation of Firefly and Renilla Luciferase Inhibition in Reporter-Gene Assays: A Case of Isoflavonoids” (International Journal of Molecular Sciences, 2021).
